In ChEMBL document CHEMBL1142603, “Manzamine B and E and ircinal A related alkaloids from an Indonesian Acanthostrongylophora sponge and their activity against infectious, tropical parasitic, and Alzheimer's diseases” (J Nat Prod, 2006):
Values after ≈ are worked out from the molar mass of the structure shown. Active and inactive are the calls of the source. No cut-off for these calls is given here.

Assays:
[1] = tested on: Mycobacterium intracellulare; test: Antibacterial activity against Mycobacterium intracellular by alamar blue assay; type: functional, organism-based
[2] = tested on: Cryptococcus neoformans; test: Antifungal activity against Cryptococcus neoformans; type: functional, organism-based
[3] = target: T1, Acetylcholinesterase (Bos taurus) (UniProt P23795); test: Inhibition of bovine AChE
T1 sequence (whole entry): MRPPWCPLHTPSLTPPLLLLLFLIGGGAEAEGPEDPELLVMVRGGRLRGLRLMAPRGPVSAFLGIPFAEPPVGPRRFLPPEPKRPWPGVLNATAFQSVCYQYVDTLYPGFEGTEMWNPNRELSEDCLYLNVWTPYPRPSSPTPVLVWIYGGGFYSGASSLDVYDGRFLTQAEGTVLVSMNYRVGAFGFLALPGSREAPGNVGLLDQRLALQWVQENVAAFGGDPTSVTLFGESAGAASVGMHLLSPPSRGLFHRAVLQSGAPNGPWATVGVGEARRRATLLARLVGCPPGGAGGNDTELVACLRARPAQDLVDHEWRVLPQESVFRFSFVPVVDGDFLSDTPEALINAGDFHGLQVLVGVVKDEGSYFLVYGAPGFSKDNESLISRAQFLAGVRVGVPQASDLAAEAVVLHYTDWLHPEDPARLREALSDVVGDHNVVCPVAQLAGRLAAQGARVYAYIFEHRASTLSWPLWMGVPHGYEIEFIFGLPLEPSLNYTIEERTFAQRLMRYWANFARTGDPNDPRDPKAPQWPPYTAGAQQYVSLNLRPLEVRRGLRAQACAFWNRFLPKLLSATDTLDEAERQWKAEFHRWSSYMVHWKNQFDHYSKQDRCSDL

[4] = tested on: Staphylococcus aureus; test: Antibacterial activity against Staphylococcus aureus; type: functional, organism-based
[5] = tested on: Plasmodium falciparum; test: Antimalarial activity after 72 hrs against chloroquine-sensitive Plasmodium falciparum D6 in erythrocytes at […] by LDH reporter assay; type: functional, organism-based
[6] = tested on: Staphylococcus aureus; test: Antibacterial activity against methicillin-resistant Staphylococcus aureus; type: functional, organism-based
[7] = target: Beta-secretase 1 (Homo sapiens) (UniProt P56817); test: Inhibition of human recombinant BACE1 by FRET-based assay
Sequence of Beta-secretase 1 (Homo sapiens) (P56817 whole entry): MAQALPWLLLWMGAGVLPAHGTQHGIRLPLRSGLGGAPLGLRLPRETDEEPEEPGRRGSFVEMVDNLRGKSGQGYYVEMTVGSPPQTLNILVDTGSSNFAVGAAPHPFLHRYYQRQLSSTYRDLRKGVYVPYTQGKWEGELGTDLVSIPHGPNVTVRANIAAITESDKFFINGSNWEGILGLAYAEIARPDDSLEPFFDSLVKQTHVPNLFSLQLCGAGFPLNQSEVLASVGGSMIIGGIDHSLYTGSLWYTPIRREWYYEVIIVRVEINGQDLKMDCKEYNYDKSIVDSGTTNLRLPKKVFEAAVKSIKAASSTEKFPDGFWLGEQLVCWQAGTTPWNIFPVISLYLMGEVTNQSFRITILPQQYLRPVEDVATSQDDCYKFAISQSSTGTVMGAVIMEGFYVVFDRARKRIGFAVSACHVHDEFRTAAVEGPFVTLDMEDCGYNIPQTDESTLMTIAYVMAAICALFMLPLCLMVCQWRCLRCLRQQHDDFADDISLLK

[8] = tested on: Vero; test: Cytotoxicity against african green monkey Vero cells at 4.76 ug/mL by neutral red assay; type: cell-based; conditions: chlorocebus sabaeus
[9] = tested on: Plasmodium falciparum; test: Antimalarial activity after 72 hrs against chloroquine-resistant Plasmodium falciparum W2 in erythrocytes at […] by LDH reporter assay; type: functional, organism-based
[10] = tested on: Leishmania donovani; test: Antileishmanial activity against Leishmania donovani after 72 hrs by alamar blue assay; type: functional, organism-based
[11] = tested on: Human immunodeficiency virus 1; test: Antiviral activity against HIV1 3B assessed as reverse transcriptase activity by enzyme immunoassay; type: functional, organism-based; conditions: Human immunodeficiency virus 1, 3B
[12] = tested on: Plasmodium falciparum; test: Antimalarial activity after 72 hrs against chloroquine-resistant Plasmodium falciparum W2 in erythrocytes by LDH reporter assay; type: functional, organism-based; conditions: W2, 72 h
[13] = tested on: Plasmodium falciparum; test: Antimalarial activity after 72 hrs against chloroquine-sensitive Plasmodium falciparum D6 in erythrocytes by LDH reporter assay; type: functional, organism-based; conditions: D6, 72 h
[14] = tested on: Mycobacterium tuberculosis; test: Antituberculosis activity against Mycobacterium tuberculosis H37Rv after 24 hrs by alamar blue assay; type: functional
[15] = target: Glycogen synthase kinase-3 beta (Homo sapiens) (UniProt P49841); test: Inhibition of human recombinant GSK3-beta assessed as incorporation of [33P]gammaATP into G2S peptide at 25 uM
Sequence of Glycogen synthase kinase-3 beta (Homo sapiens) (P49841 whole entry, looked up): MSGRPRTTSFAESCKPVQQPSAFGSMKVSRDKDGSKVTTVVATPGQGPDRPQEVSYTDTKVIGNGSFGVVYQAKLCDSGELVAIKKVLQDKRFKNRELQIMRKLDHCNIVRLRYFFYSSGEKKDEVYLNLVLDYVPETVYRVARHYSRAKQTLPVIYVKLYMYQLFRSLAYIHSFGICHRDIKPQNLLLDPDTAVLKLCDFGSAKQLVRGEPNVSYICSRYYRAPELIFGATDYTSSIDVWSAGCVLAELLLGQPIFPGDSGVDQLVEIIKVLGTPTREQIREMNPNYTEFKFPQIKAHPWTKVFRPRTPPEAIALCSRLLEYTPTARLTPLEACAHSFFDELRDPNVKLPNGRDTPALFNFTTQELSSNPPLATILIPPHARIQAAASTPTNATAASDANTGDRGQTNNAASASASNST

[16] = tested on: Vero; test: Cytotoxicity against african green monkey Vero cells by neutral red assay; type: cell-based; conditions: chlorocebus sabaeus

SMILES | Activity [2] | Activity [3] | Activity [4] | Activity [6] | Activity [7] | Activity [8] | IC50 [10] [µg/mL] | IC90 [10] [µg/mL] | IC50 [11] [µg/mL] | IC50 [12] [µg/mL] | IC50 [13] [µg/mL] | IC50 [1] [µg/mL] | MIC [14] [µg/mL] | also measured
Oc1cccc2c3cc[nH]c(C4=C[C@]56CC/C=C\CCCCN7CC[C@@H]4[C@]4(C[C@@H]8/C=C\CCC[C@@H](O5)N8[C@H]46)C7)c-3nc12 [12,28-OXA-8-HYDROXY-MANZAMINE A] | inactive | inactive | inactive | inactive | inactive | Non-toxic |  |  |  |  |  |  |  | Activity [1]: inactive; Activity [5]: inactive; Activity [9]: inactive
C1=C(c2[nH]ccc3c4ccccc4nc2-3)[C@@H]2CCN3CCCC/C=C\CC[C@]14O[C@@H]1CCC/C=C\[C@H]5C[C@@]2(C3)[C@H]4N51 [12,28-OXAMANZAMINE A] | inactive | inactive | inactive | inactive | inactive | Non-toxic | 7.8 (≈ 14.3 µM) | 50 (≈ 91.4 µM) | 22.2 (≈ 40.6 µM) |  |  |  |  | Activity [1]: inactive; Activity [5]: inactive; Activity [9]: inactive
C[C@@H]1[C@H](O)[C@@H](C)/C=C/C=C/C=C/C=C/C=C/C=C/C=C/[C@H](O[C@@H]2O[C@H](C)[C@@H](O)[C@H](N)[C@@H]2O)C[C@@H]2O[C@](O)(C[C@@H](O)C[C@@H](O)[C@H](O)CC[C@@H](O)C[C@@H](O)CC(=O)O[C@H]1C)C[C@H](O)[C@H]2C(=O)O [AMPHOTERICIN B] |  |  |  |  |  |  | 0.06 (≈ 0.0649 µM) | 0.15 (≈ 0.162 µM) |  |  |  |  |  | IC50 [2]: 0.15 µg/mL (≈ 0.162 µM)
C[C@@H]1CC[C@H]2[C@@H](C)C(=O)O[C@@H]3O[C@@]4(C)CC[C@@H]1[C@]32OO4 [ARTEMISININ] |  |  |  |  |  |  |  |  |  | 0.0063 (≈ 0.0223 µM) | 0.01 (≈ 0.0354 µM) |  |  | 
O=C(O)c1cn(C2CC2)c2cc(N3CCNCC3)c(F)cc2c1=O [CIPROFLOXACIN] |  |  |  |  |  |  |  |  |  |  |  | 0.25 (≈ 0.754 µM) |  | 
O=C1CCCN2[C@@H](CC1)C[C@]13CN4CCCC/C=C\CC[C@](O)(C=C(c5nccc6c5[nH]c5ccccc56)C1CC4)[C@H]23 (some centres not stated) [MANZAMINE E] | inactive | inactive | inactive | inactive | inactive | Non-toxic | 3.8 (≈ 6.73 µM) | 6.8 (≈ 12 µM) | 13.1 (≈ 23.2 µM) | 4.76 (≈ 8.43 µM) | 3.4 (≈ 6.02 µM) | 12.5 (≈ 22.1 µM) | 3.8 (≈ 6.73 µM) | inhibition [15]: 53.6%
O=C1CCCN2[C@@H](CC1)C[C@]13CN4CCCC/C=C\CC[C@](O)(C=C(c5nccc6c5[nH]c5c(O)cccc56)C1CC4)[C@H]23 (some centres not stated) [MANZAMINE F] |  | inactive | inactive | inactive | inactive | Non-toxic | 4.2 (≈ 7.23 µM) | 7 (≈ 12.1 µM) | 7.3 (≈ 12.6 µM) | 1.7 (≈ 2.93 µM) | 0.78 (≈ 1.34 µM) | 6.25 (≈ 10.8 µM) | 2.6 (≈ 4.48 µM) | IC50 [2]: 6.5 µg/mL (≈ 11.2 µM); inhibition [15]: 29.9%
Oc1ccc2[nH]c3c(C4=C[C@@]5(O)CC/C=C\CCCCN6CC[C@@H]4[C@]4(C[C@@H]7/C=C\CCCCN7[C@H]45)C6)nccc3c2c1 [MANZAMINE Y] | inactive | inactive |  |  | inactive |  | 1.6 (≈ 2.83 µM) | 8 (≈ 14.2 µM) |  | 0.85 (≈ 1.51 µM) | 0.42 (≈ 0.744 µM) | 3.5 (≈ 6.2 µM) | 5.2 (≈ 9.21 µM) | IC50 [16]: 3.9 µg/mL (≈ 6.91 µM); IC50 [4]: 15 µg/mL (≈ 26.6 µM); inhibition [15]: 74.3%; IC50 [6]: 15 µg/mL (≈ 26.6 µM)
N=C(N)c1ccc(OCCCCCOc2ccc(C(=N)N)cc2)cc1 [PENTAMIDINE] |  |  |  |  |  |  | 2.1 (≈ 6.17 µM) | 10 (≈ 29.4 µM) |  |  |  |  |  | 
CO[C@H]1/C=C/O[C@@]2(C)Oc3c(C)c(O)c4c(O)c(c(/C=N/N5CCN(C)CC5)c(O)c4c3C2=O)NC(=O)/C(C)=C\C=C\[C@H](C)[C@H](O)[C@@H](C)[C@@H](O)[C@@H](C)[C@H](OC(C)=O)[C@@H]1C [RIFAMPIN] |  |  |  |  |  |  |  |  |  |  |  |  | 0.5 (≈ 0.608 µM) | 
Cc1cn([C@H]2C[C@H](N=[N+]=[N-])[C@@H](CO)O2)c(=O)[nH]c1=O [ZIDOVUDINE] |  |  |  |  |  |  |  |  | 0.004 (≈ 0.015 µM) |  |  |  |  | 
